{
  "source": "patent US9724362B2",
  "about": "“Pharmaceutical compositions comprising nanoparticles and a resuspending material” (Bend Research, Inc., priority 2007, dated 2017)",
  "key": {"Drug solubility": {"assay": "Drug solubility", "assay_type": "physicochemical"}},
  "note": "Like-named read-outs stand apart in the source and are kept apart here.",
  "data": [
    {"compound": "CCOC(=O)N1c2ccc(C(F)(F)F)cc2[C@@H](N(Cc2cc(C(F)(F)F)cc(C(F)(F)F)c2)C(=O)OC)C[C@H]1CC", "note": "[Drug 2, [2R,4S]4-[(3,5-bis-trifluoromethyl-benzyl)-methoxycarbonyl-amino]-2-ethyl-6-trifluoromethyl-3,4-dihydro-2H-quinoline-1-carboxylic acid ethyl ester]", "values": [
      {"measurement": "solubility", "setting": "Drug solubility; water, read-out: solubility in water", "value": "< 0.1", "unit": "µg/mL"}
    ]},
    {"compound": "Ethylcellulose", "values": [
      {"measurement": "amount of polymer soluble at pH 6.5", "value": "less than 0.001 mg/mL"}
    ]},
    {"compound": "Cc1ccc(-c2cc(C(F)(F)F)nn2-c2ccc(S(N)(=O)=O)cc2)cc1", "note": "[Drug 1, 4-[5-(4-methylphenyl)-3-(trifluoromethyl)-1H-pyrazol-1-yl]benzenesulfonamide]", "values": [
      {"measurement": "solubility", "setting": "Drug solubility; MFD solution, read-out: solubility in MFD solution", "value": "~40", "unit": "µg/mL"}
    ]}
  ]
}
